Three compounds from ChEMBL document CHEMBL3046330, “Synthesis and biological activity of hydrazidehydrazones and their corresponding 3-acetyl-2,5-disubstituted-2,3-dihydro-1,3,4-oxadiazoles” (Med Chem Res, 2012) can be followed below.

≈ marks a conversion by molar mass, not a printed value. Calls of active or inactive are those of the source. Some results are limits rather than exact numbers.

Data set [1] concerns Candida albicans. The data set can be described thus: Antifungal activity against Candida albicans clinical isolate after 24 hr by NCCLS broth microdilution method. Type of data set: functional.
Data set [2] deals with HL-60. The experiment in a line: Antioxidant activity in PMA-stimulated Homo sapiens (human) HL60 cells assessed as inhibition of intracellular ROS generation incubated for 30 min prior to PMA stimulation measured after 30 min by DCFH-DA assay. The format is functional, cell-based.
For data set [3], the system named is Candida tropicalis. The data set can be described thus: Antifungal activity against Candida tropicalis NRRL Y-12968 at 2000 ug/ml by agar diffusion method. The format is functional. As to conditions: read-out: IZ. In general terms: A growth-free zone around the sample is the usual read-out of agar diffusion tests.
In the next data set the test system is SK-OV-3. The data set can be described thus: Cytotoxicity against Homo sapiens (human) SKOV3 cells assessed as cell viability up to 25 ug/ml after 48 hr by neutral red assay. Type of data set: functional, cell-based.
The subject of the next data set is Pichia kudriavzevii. The experiment in a line: Antifungal activity against Pichia kudriavzevii NRRL Y-7179 after 24 hr by NCCLS broth microdilution method. Type of data set: functional. As to conditions: NRRL Y-7179, 24 h. For orientation: Dilution methods test growth across graded concentrations, often in twofold steps.
The next data set has as its system KB. The experiment in a line: Cytotoxicity against Homo sapiens (human) KB cells assessed as cell viability up to 25 ug/ml after 48 hr by neutral red assay. Type of data set: functional, cell-based.
In data set [4] the test system is Candida albicans. The data set can be described thus: Antifungal activity against Candida albicans ATCC 90028 after 24 hr by NCCLS broth microdilution method. Type of data set: functional. As to conditions: ATCC 90028, 24 h.
A further data set concerns SW1353. The data set can be described thus: Inhibition of PMA-induced NFkappaB activity in Homo sapiens (human) SW1353 cells up to 25 ug/ml incubated for 30 min followed by PMA induction for 8 hr by luciferase reporter gene assay. Type of data set: cell-based. (In a reporter assay the amount or activity of a reporter protein is the signal.)
In data set [5] the test system is HL-60. The experiment in a line: Cytotoxicity against Homo sapiens (human) HL60 cells. Type of data set: cell-based.
Data set [6] concerns Candida albicans. The data set can be described thus: Antifungal activity against Candida albicans clinical isolate at 2000 ug/ml by agar diffusion method. As to conditions: read-out: IZ. Type of data set: functional.
In the next data set the test system is Cyberlindnera jadinii. The experiment in a line: Antifungal activity against Cyberlindnera jadinii NRRL Y-900 after 24 hr by NCCLS broth microdilution method. Particulars: Williopsis jadinii, NRRL Y-900, 24 h. The format is functional.
A further data set concerns Nakaseomyces glabratus. The experiment in a line: Antifungal activity against Candida glabrata clinical isolate after 24 hr by NCCLS broth microdilution method. The format is functional.
The target of data set [7] is T1, Nitric oxide synthase, inducible (Mus musculus, UniProt P29477).
T1 sequence (P29477 whole entry): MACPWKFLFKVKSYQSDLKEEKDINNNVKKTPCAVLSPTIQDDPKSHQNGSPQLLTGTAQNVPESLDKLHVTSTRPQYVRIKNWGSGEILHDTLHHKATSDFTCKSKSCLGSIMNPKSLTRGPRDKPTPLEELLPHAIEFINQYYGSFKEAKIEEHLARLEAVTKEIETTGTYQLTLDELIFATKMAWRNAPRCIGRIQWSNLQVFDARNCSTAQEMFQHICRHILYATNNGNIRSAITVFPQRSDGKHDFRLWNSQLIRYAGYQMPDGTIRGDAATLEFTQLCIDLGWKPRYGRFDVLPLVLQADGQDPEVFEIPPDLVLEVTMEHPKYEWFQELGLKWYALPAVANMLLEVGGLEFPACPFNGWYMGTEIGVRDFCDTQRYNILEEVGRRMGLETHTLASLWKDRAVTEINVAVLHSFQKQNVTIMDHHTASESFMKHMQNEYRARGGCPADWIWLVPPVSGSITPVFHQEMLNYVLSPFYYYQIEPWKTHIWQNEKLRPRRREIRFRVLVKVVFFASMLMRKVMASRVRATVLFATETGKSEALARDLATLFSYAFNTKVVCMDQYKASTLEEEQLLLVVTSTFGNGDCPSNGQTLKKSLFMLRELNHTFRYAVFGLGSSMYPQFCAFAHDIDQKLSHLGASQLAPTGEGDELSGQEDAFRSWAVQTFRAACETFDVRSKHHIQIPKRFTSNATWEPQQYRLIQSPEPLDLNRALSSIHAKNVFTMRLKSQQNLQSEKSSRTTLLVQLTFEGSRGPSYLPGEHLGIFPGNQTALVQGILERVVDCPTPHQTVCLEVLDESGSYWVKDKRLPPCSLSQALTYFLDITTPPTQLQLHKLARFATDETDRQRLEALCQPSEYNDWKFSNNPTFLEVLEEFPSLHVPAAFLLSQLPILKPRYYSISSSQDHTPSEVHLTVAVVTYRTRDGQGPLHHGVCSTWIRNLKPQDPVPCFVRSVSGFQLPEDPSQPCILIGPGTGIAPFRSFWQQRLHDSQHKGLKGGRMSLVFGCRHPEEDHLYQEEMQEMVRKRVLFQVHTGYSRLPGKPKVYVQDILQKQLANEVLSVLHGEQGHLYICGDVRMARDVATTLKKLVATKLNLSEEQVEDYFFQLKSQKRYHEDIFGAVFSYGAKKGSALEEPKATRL
The experiment in a line: Inhibition of iNOS in Mus musculus (mouse) RAW264.7 cells assessed as inhibition of LPS-induced nitrite production incubated for 30 min prior to LPS challenge measured after 24 hr by Griess assay. Type of data set: cell-based.

A further data set concerns the target Transcription factor Sp1 (Homo sapiens, UniProt P08047). The experiment in a line: Inhibition of Sp1 (unknown origin) up to 25 ug/ml by luciferase reporter gene assay.
Data set [8] in a line: Cytotoxicity against Sus scrofa (pig) LLC-PK11 cells assessed as cell viability up to 25 ug/ml after 48 hr by neutral red assay. The format is cell-based. Particulars: llc-pk11, 48 h.
Another data set has as its system SK-MEL. The experiment in a line: Cytotoxicity against Homo sapiens (human) SK-MEL cells assessed as cell viability up to 25 ug/ml after 48 hr by neutral red assay. The format is functional, cell-based.
For a further data set, the system named is RAW264.7. The experiment in a line: Cytotoxicity against Mus musculus (mouse) RAW264.7 cells up to 25 ug/ml. Type of data set: cell-based.
Data set [9] concerns Candida albicans. The experiment in a line: Antifungal activity against Candida albicans NRRL Y-12983 after 24 hr by NCCLS broth microdilution method. As to conditions: NRRL Y-12983, 24 h. The format is functional.
The subject of data set [10] is Candida tropicalis. The experiment in a line: Antifungal activity against Candida tropicalis NRRL Y-12968 after 24 hr by NCCLS broth microdilution method. Type of data set: functional. Particulars: NRRL Y-12968, 24 h.
Another data set deals with BT-549. The data set can be described thus: Cytotoxicity against Homo sapiens (human) BT549 cells assessed as cell viability up to 25 ug/ml after 48 hr by neutral red assay. The format is functional, cell-based.
The subject of a further data set is Vero. The experiment in a line: Cytotoxicity against Chlorocebus aethiops (African green monkey) Vero cells assessed as cell viability up to 25 ug/ml after 48 hr by neutral red assay. Type of data set: cell-based. Particulars: chlorocebus sabaeus.
For another data set, the system named is Candida parapsilosis. The experiment in a line: Antifungal activity against Candida parapsilosis NRRL Y-12696 after 24 hr by NCCLS broth microdilution method. The format is functional. Particulars: Lodderomyces parapsilosis, NRRL Y-12696, 24 h.
Data set [11] addresses T2, Nitric oxide synthase, inducible (Mus musculus) (UniProt P29477).
T2 sequence (whole entry): T1 sequence (P29477 whole entry)
The experiment in a line: Inhibition of iNOS in Mus musculus (mouse) RAW264.7 cells assessed as inhibition of LPS-induced nitrite production up to 25 ug/ml incubated for 30 min prior to LPS challenge measured after 24 hr by Griess assay relative to vehicle-treated control. The format is cell-based.

The test system of data set [12] is HL-60. The data set can be described thus: Cytotoxicity against Homo sapiens (human) HL60 cells up to 25 ug/ml. The format is cell-based.
Data set [13] can be described thus: Inhibition of PMA-induced NFkappaB activity in Homo sapiens (human) SW1353 cells incubated for 30 min followed by PMA induction for 8 hr by luciferase reporter gene assay. Type of data set: cell-based.
In data set [14] the test system is HL-60. The data set can be described thus: Antioxidant activity in PMA-stimulated Homo sapiens (human) HL60 cells assessed as inhibition of intracellular ROS generation up to 25 ug/ml incubated for 30 min prior to PMA stimulation measured after 30 min by DCFH-DA assay relative to vehicle-treated control. Type of data set: functional, cell-based.

Chain of Transcription factor Sp1 (P08047 whole entry): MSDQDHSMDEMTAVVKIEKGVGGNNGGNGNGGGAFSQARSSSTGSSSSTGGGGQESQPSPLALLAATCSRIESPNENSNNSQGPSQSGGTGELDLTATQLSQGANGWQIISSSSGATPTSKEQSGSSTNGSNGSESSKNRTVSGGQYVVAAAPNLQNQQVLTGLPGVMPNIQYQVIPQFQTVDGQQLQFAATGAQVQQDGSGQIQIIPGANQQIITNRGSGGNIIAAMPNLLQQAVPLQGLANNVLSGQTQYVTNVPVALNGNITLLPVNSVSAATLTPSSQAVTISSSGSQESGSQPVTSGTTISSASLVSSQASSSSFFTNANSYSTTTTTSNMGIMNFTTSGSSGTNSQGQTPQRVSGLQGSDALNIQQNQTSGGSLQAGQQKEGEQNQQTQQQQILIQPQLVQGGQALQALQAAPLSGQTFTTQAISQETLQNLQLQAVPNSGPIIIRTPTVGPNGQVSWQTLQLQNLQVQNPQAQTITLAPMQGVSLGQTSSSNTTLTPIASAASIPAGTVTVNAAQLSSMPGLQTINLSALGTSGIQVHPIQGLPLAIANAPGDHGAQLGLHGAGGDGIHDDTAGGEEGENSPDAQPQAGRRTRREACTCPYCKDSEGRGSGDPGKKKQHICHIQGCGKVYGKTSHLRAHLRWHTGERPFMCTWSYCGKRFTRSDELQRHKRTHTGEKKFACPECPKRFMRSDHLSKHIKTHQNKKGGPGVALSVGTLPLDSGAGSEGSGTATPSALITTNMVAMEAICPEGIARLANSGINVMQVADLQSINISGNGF

For `O=C(N/N=C/c1ccco1)c1ccc(F)cc1`, the MIC (usually the smallest concentration in the dilution series that meets the test's criterion for growth inhibition) in the data set with Candida albicans [1] came to 250 µg/mL (≈ 1080 µM); in the data set with Pichia kudriavzevii, 500 µg/mL (≈ 2150 µM); in the data set with Candida albicans [4], 500 µg/mL (≈ 2150 µM); in the data set on Cyberlindnera jadinii, 500 µg/mL (≈ 2150 µM); in the data set with Nakaseomyces glabratus it was 250 µg/mL (≈ 1080 µM); with Candida albicans [9] it was 500 µg/mL (≈ 2150 µM). Besides, the MIC against Candida tropicalis [10] and with Candida parapsilosis was 500 µg/mL (≈ 2150 µM) throughout. Besides, the IC50 (as a rule, the midpoint of a concentration-inhibition curve) in the data set on HL-60 [2] is 0.7 µg/mL (≈ 3.01 µM); in the data set with HL-60 [5] it was 27 µg/mL (≈ 116 µM); in data set [7], greater than 108 µM. Besides, the zone of inhibition at 2000 µg/mL with Candida tropicalis [3] and in the data set with Candida albicans [6] was 9 mm each time. The result in the data set with SK-OV-3, in the data set with KB, in the data set on SK-MEL and in the data set with BT-549 was inactive. Moreover, the inhibition result in the data set with SW1353 is “inactive”. Further, the “inhibition (INH)” value at Transcription factor Sp1 is listed as “Not Active”. Besides, the Activity entry in data set [8] was “Not Active”; in the data set on RAW264.7, “Non-toxic”; with Vero, “Not Active”.

Take `CC(=O)N1N=C(c2ccc(F)cc2)OC1c1ccco1` (stereo not drawn): the MIC was determined as 500 µg/mL (≈ 1820 µM) in the data set on Candida albicans [1]; 500 µg/mL (≈ 1820 µM) in the data set on Pichia kudriavzevii; 1000 µg/mL (≈ 3650 µM) in the data set on Candida albicans [4]; 500 µg/mL (≈ 1820 µM) in the data set with Cyberlindnera jadinii; 500 µg/mL (≈ 1820 µM) against Nakaseomyces glabratus; 500 µg/mL (≈ 1820 µM) in the data set with Candida albicans [9]. For the same compound, the minimal inhibitory concentration (MIC) against Candida tropicalis [10] was found to be 500 µg/mL (≈ 1820 µM); against Candida parapsilosis it was 1000 µg/mL (≈ 3650 µM). In addition, the concentration for half-maximal inhibition (IC50) with HL-60 [2] stood at 5.2 µg/mL (≈ 19 µM); in the data set with HL-60 [5], 24 µg/mL (≈ 87.5 µM). Moreover, the zone of inhibition at 2000 µg/mL in the data set with Candida tropicalis [3] and in the data set with Candida albicans [6] was 9 mm each time. Moreover, the outcome in the data set with SK-OV-3, in the data set with KB, in the data set with SK-MEL and in the data set with BT-549 was inactive. Besides, the inhibition entry (in the data set on SW1353; in data set [11]) was “inactive” each time. In addition, the “inhibition (INH)” value on Transcription factor Sp1 is listed as “Not Active”. For the same compound, the Activity entry is reported as “Not Active” in [8], “Non-toxic” with RAW264.7 and “Not Active” in the data set on Vero.

In the case of `O=C(N/N=C/c1ccccc1)c1ccc(F)cc1`, the Activity result in the data set on HL-60 [12] is “Non-toxic”; in [8] it was “Not Active”; in the data set with RAW264.7 it was “Non-toxic”; in the data set with Vero, “Not Active”. For the same compound, the zone of inhibition at 2000 µg/mL in the data set with Candida tropicalis [3] and with Candida albicans [6] was 9 mm in each case. For the same compound, the result in the data set with SK-OV-3, in the data set with KB, with SK-MEL and with BT-549 was inactive. Moreover, the MIC in the data set with Pichia kudriavzevii amounted to 500 µg/mL (≈ 2060 µM); with Candida albicans [4], 500 µg/mL (≈ 2060 µM); against Cyberlindnera jadinii, 500 µg/mL (≈ 2060 µM); with Nakaseomyces glabratus, 250 µg/mL (≈ 1030 µM); with Candida albicans [9], 500 µg/mL (≈ 2060 µM); against Candida parapsilosis, 250 µg/mL (≈ 1030 µM). The compound further came in with a concentration for half-maximal inhibition (IC50) in [13] of 2.8 µg/mL (≈ 11.6 µM). The inhibition entry (with HL-60 [14]; in [11]) was “inactive” throughout.
